Measured values from publication PMC11749787, “Natural flavonoid glycosides Chrysosplenosides I & A rejuvenate intestinal stem cell aging via activation of PPARγ signaling” (Life Medicine, 2024).

Molecular target: T1, PPARγ (peroxisome proliferator-activated receptor-gamma) (Homo sapiens, UniProt P37231)
T1 construct: gene PPARG; human PPARγ protein with a His tag (HY-P7999, MCE)
T1 sequence (P37231 1-505): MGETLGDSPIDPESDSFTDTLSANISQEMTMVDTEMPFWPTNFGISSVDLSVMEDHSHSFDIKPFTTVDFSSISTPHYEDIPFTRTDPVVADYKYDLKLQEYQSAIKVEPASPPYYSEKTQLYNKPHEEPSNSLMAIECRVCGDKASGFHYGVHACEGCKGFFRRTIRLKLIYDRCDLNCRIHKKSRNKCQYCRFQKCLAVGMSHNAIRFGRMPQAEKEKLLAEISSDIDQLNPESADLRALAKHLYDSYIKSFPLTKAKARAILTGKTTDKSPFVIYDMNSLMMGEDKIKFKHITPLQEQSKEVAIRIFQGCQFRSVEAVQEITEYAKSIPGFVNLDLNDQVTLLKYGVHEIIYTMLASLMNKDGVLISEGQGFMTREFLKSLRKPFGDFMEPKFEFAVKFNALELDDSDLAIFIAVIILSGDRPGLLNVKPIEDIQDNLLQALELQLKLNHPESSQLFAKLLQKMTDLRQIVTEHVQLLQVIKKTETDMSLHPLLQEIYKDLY
Experiment: bio-layer interferometry (Octet K2, NTA biosensor, immobilized His-tagged PPARγ)
Type: binding

Row | Molecule | Kd [µM]
1 | Chrysosplenoside A [CA2] | 32.4
2 | COc1cc(O[C@@H]2O[C@H](CO)[C@@H](O)[C@H](O)[C@H]2O)c(-c2oc3cc(OC)c(OC)c(O)c3c(=O)c2OC)cc1O [CA1, Chrysosplenoside I] | 75.3
